Results taken from ChEMBL document CHEMBL4138157, “Synthesis, antibacterial properties and 2D-QSAR studies of quinolone-triazole conjugates” (2018).
Values after ≈ are worked out from the molar mass of the structure shown.

Assays:
Salmonella typhi = test: Antibacterial activity against Salmonella typhi ATCC 19430 after 18 hrs by agar dilution method; assay type: functional, Salmonella enterica subsp. enterica serovar Typhi; conditions: Salmonella enterica, ATCC 19430, 18 h
Escherichia coli = test: Antibacterial activity against Escherichia coli ATCC 25922 after 18 hrs by agar dilution method; assay type: functional; conditions: ATCC 25922, 18 h
Pseudomonas aeruginosa = test: Antibacterial activity against Pseudomonas aeruginosa ATCC 27853 after 18 hrs by agar dilution method; assay type: functional; conditions: ATCC 27853, 18 h
Streptococcus pyogenes = test: Antibacterial activity against Streptococcus pyogenes ATCC 19615 after 18 hrs by agar dilution method; assay type: functional; conditions: ATCC 19615, 18 h

SMILES	MIC (Salmonella typhi) [µM]	MIC (Escherichia coli) [µM]	MIC (Pseudomonas aeruginosa) [µM]	MIC (Streptococcus pyogenes) [µM]
C#CCN1CCN(c2ncc3c(=O)c(C(=O)O)cn(CC)c3n2)CC1	> 3000	750 (≈ 256 µg/mL)	> 3000	750 (≈ 256 µg/mL)
O=C(O)c1cn(C2CC2)c2cc(N3CCN(Cc4cn([C@@H](Cc5ccccc5)C(=O)O)nn4)CC3)c(F)cc2c1=O	2230 (≈ 1250 µg/mL)		2230 (≈ 1250 µg/mL)	2230 (≈ 1250 µg/mL)
O=C(O)c1cn(C2CC2)c2cc(N3CCN(Cc4cn(-c5ccccc5)nn4)CC3)c(F)cc2c1=O	0.2 (≈ 0.0977 µg/mL)	0.2 (≈ 0.0977 µg/mL)	> 2100	16.4 (≈ 8.01 µg/mL)
CCn1cc(C(=O)O)c(=O)c2cc(F)c(N3CCN(Cc4cn([C@@H](CC(C)C)C(=O)O)nn4)CC3)cc21	2430 (≈ 1250 µg/mL)		1210 (≈ 625 µg/mL)	1210 (≈ 625 µg/mL)
CCn1cc(C(=O)O)c(=O)c2cc(F)c(N3CCN(Cc4cn(-c5ccc([N+](=O)[O-])cc5)nn4)CC3)cc21	0.2 (≈ 0.104 µg/mL)	0.2 (≈ 0.104 µg/mL)	> 1960	15.3 (≈ 7.98 µg/mL)
CCn1cc(C(=O)O)c(=O)c2cc(F)c(N3CCN(Cc4cn(CC(=O)N[C@@H](Cc5ccccc5)C(=O)O)nn4)CC3)cc21	2060 (≈ 1250 µg/mL)		2060 (≈ 1250 µg/mL)	1030 (≈ 625 µg/mL)
C#CCN1CCN(c2cc3c(cc2F)c(=O)c(C(=O)O)cn3CC)CC1	1430 (≈ 512 µg/mL)	> 2870	> 2870	1430 (≈ 512 µg/mL)
CCn1cc(C(=O)O)c(=O)c2cnc(N3CCN(Cc4cn([C@@H](C)C(=O)O)nn4)CC3)nc21	2740 (≈ 1250 µg/mL)		1370 (≈ 625 µg/mL)	1370 (≈ 625 µg/mL)
CC(C)[C@@H](C(=O)O)n1cc(CN2CCN(c3cc4c(cc3F)c(=O)c(C(=O)O)cn4C3CC3)CC2)nn1	2440 (≈ 1250 µg/mL)		2440 (≈ 1250 µg/mL)	2440 (≈ 1250 µg/mL)
CCn1cc(C(=O)O)c(=O)c2cc(F)c(N3CCN(Cc4cn([C@H](C(=O)O)C(C)C)nn4)CC3)cc21	2500 (≈ 1250 µg/mL)		2500 (≈ 1250 µg/mL)	1250 (≈ 625 µg/mL)
CC(C)C[C@@H](C(=O)O)n1cc(CN2CCN(c3cc4c(cc3F)c(=O)c(C(=O)O)cn4C3CC3)CC2)nn1	2370 (≈ 1250 µg/mL)		2370 (≈ 1250 µg/mL)	2370 (≈ 1250 µg/mL)
CCn1cc(C(=O)O)c(=O)c2cnc(N3CCN(Cc4cn(-c5ccc([N+](=O)[O-])cc5)nn4)CC3)nc21	0.2 (≈ 0.101 µg/mL)	0.2 (≈ 0.101 µg/mL)	1010 (≈ 512 µg/mL)	127 (≈ 64 µg/mL)
CCn1cc(C(=O)O)c(=O)c2cnc(N3CCN(Cc4cn(CC(=O)N[C@@H](Cc5ccccc5)C(=O)O)nn4)CC3)nc21	212 (≈ 125 µg/mL)		2120 (≈ 1250 µg/mL)	2120 (≈ 1250 µg/mL)
CCn1cc(C(=O)O)c(=O)c2cc(F)c(N3CCN(Cc4cn(-c5ccc(C)cc5)nn4)CC3)cc21	32.6 (≈ 16 µg/mL)	0.2 (≈ 0.0981 µg/mL)	> 2090	2 (≈ 0.981 µg/mL)
CCn1cc(C(=O)O)c(=O)c2cnc(N3CCN(Cc4cn(-c5ccccc5)nn4)CC3)nc21	0.3 (≈ 0.138 µg/mL)	0.3 (≈ 0.138 µg/mL)	1110 (≈ 512 µg/mL)	556 (≈ 256 µg/mL)
O=C(Cn1cc(CN2CCN(c3cc4c(cc3F)c(=O)c(C(=O)O)cn4C3CC3)CC2)nn1)N[C@@H](Cc1ccccc1)C(=O)O	2020 (≈ 1250 µg/mL)		2020 (≈ 1250 µg/mL)	2020 (≈ 1250 µg/mL)
C[C@@H](C(=O)O)n1cc(CN2CCN(c3cc4c(cc3F)c(=O)c(C(=O)O)cn4C3CC3)CC2)nn1	2580 (≈ 1250 µg/mL)		2580 (≈ 1250 µg/mL)	2580 (≈ 1250 µg/mL)
C#CCN1CCN(c2cc3c(cc2F)c(=O)c(C(=O)O)cn3C2CC2)CC1	1390 (≈ 512 µg/mL)	> 2770	> 2770	> 2770
O=C(O)c1cn(C2CC2)c2cc(N3CCNCC3)c(F)cc2c1=O [CIPROFLOXACIN]	7.2 (≈ 2.39 µg/mL)		14.5 (≈ 4.8 µg/mL)	3770 (≈ 1250 µg/mL)
CCn1cc(C(=O)O)c(=O)c2cc(F)c(N3CCNCC3)cc21 [NORFLOXACIN]	7.5 (≈ 2.4 µg/mL)		15 (≈ 4.79 µg/mL)	1960 (≈ 625 µg/mL)
CCn1cc(C(=O)O)c(=O)c2cnc(N3CCNCC3)nc21 [PIPEMIDIC ACID]	7.9 (≈ 2.4 µg/mL)		64.3 (≈ 19.5 µg/mL)	2060 (≈ 625 µg/mL)
